Test [1] has as its system MCF7. Put plainly: Cytotoxicity against Homo sapiens (human) MCF-7 cells expressing ER after 48 hr by SRB assay. It counts as functional. (In SRB staining, fixed cells bind dye roughly in proportion to their protein.)
Test [2] relates to MDA-MB-231. Put plainly: Cytotoxicity against Homo sapiens (human) ER-deficient MDA-MB-231 cells after 48 hr by SRB assay. It counts as functional.
The test system of test [3] is MCF-7. The test can be described thus: Agonist activity at estrogen receptor in Homo sapiens (human) MCF-7 cells grown in stestrogen receptoroid free RPMI medium assessed as incorporation of [3H]thymidine at 0.1 to 0.2 uM aftestrogen receptor 72 hr by liquid scintillation counting. It counts as cell-based.
Test [4] concerns MCF-7. Put plainly: Inhibition of estrogen receptor in Homo sapiens (human) MCF-7 cells grown in RPMI medium assessed as cell death at 3.13 to 100 uM aftestrogen receptor 48 hr by SRB assay. It counts as cell-based.
Test [5] relates to MDA-MB-231. The test can be described thus: Cytotoxicity against Homo sapiens (human) ER-deficient MDA-MB-231 cells grown in RPMI medium at 3.13 to 100 uM after 48 hr by SRB assay. The format is functional, cell-based.
The test system of test [6] is MCF7. The test can be described thus: Inhibition of ER in Homo sapiens (human) MCF-7 cells grown in steroid free RPMI medium assessed as cell death at 3.13 to 100 uM after 72 hr by SRB assay. It counts as functional, cell-based.
Test [7] deals with MCF-7. Put plainly: Antagonist activity at estrogen receptor in Homo sapiens (human) MCF-7 cells grown in stestrogen receptoroid free RPMI medium assessed as inhibition of [3H]thymidine incorporation at 3.13 to 100 uM aftestrogen receptor 72 hr by liquid scintillation counting. It counts as cell-based. In general terms: Uptake of a labelled nucleoside into DNA is a usual measure of proliferation.

The test system of test [8] is MDA-MB-231. The test can be described thus: Antiproliferative activity against Homo sapiens (human) ER-deficient MDA-MB-231 cells grown in steroid free RPMI medium assessed as inhibition of [3H]thymidine incorporation at 3.13 to 100 uM after 72 hr by liquid scintillation counting. The format is functional, cell-based.
Test [9] has as its system MCF-7. The test can be described thus: Antagonist activity at estrogen receptor in Homo sapiens (human) MCF-7 cells assessed as potentiation of fluvestrant-induced reduction in [3H]thymidine incorporation at 3.13 to 6.25 uM aftestrogen receptor 72 hr by liquid scintillation counting. It counts as cell-based.
Test [10] concerns MCF-7. The test can be described thus: Antagonist activity at estrogen receptor in Homo sapiens (human) MCF-7 cells assessed as inhibition of 17betaestradiol-induced [3H]thymidine incorporation at 0.1 to 0.78 uM aftestrogen receptor 72 hr by liquid scintillation counting. It counts as cell-based.
Test [11] deals with MDA-MB-231. Put plainly: Cytotoxicity against Homo sapiens (human) ER-deficient MDA-MB-231 cells grown in steroid free RPMI medium at 3.13 to 100 uM after 72 hr by SRB assay. The format is functional, cell-based.
Test [12] deals with MCF-7. Put plainly: Antagonist activity at estrogen receptor in Homo sapiens (human) MCF-7 cells assessed as potentiation of 4-hydroxytamoxifen-induced reduction in [3H]thymidine incorporation aftestrogen receptor 72 hr by liquid scintillation counting. The format is cell-based.

Calls of active or inactive are those of the source. The calls are words filed in the database; no cut-off is given here.

As for `CC(C)=CCOc1cc2oc(-c3ccccc3)cc(=O)c2c(O)c1O`, the Activity entry in the test with MCF7 [1], in the test with MDA-MB-231 [2] and in the test with MCF-7 [12] was “Dose-dependent effect” each time. Also, the GI50 (commonly the concentration giving 50% growth inhibition) in the test on MCF7 [1] (MCF7, 48 h) was 11.2 µM; in the test on MDA-MB-231 [2] (MDA-MB-231, 48 h) it was 29.7 µM. Besides, the result with MCF-7 [3], in the test with MDA-MB-231 [5], with MDA-MB-231 [8], with MCF-7 [9] and in the test with MDA-MB-231 [11] was Active. For the same compound, in the test with MCF-7 [4], the inhibition result is “inactive”. Further, the inhibition result with MCF7 [6], with MCF-7 [7] and in the test with MCF-7 [10] was “Active” throughout.

The values are drawn from ChEMBL document CHEMBL3045380, “Effects of a prenyl-baicalein derivative on ER (+) MCF-7 and ER () MDA-MB-231 breast tumor cell lines” (2012).
